ChEMBL document CHEMBL1201862, “PubChem BioAssay data set” (2004)
The source made the active and inactive calls.

Columns and labels:
[1] = target: 26S proteasome non-ATPase regulatory subunit 14 (Homo sapiens, UniProt O00487); experiment: inhibition of proteasome subunit RPN11 – biochemical, fluorescence polarization, uHTS hits, confirmation (AID 602368); type: functional
[2] = target: 72 kDa type IV collagenase (Homo sapiens, UniProt P08253); experiment: Dose Response validation of uHTS RPN11 inhibitor hits using a MMP-2 Fluorescence assay.; type: functional
[3] = target: Prothrombin (Bos taurus, UniProt P00735); experiment: thrombin inhibition, dose response, biochemical, fluorescence polarization, uHTS hits (AID 602369); type: functional
[4] = target: T1, Small ubiquitin-related modifier 1 (Homo sapiens, UniProt P63165); experiment: inhibitors of SUMO1 peptide binding, dose response, biochemical, fluorescence polarization, uHTS hits (AID 624382); type: functional; conditions: read-out: IC50_Mean
[5] = target: T1, Small ubiquitin-related modifier 1; experiment: inhibitors of SUMO1 partner interactions, dose response, biochemical, FRET (AID 624383); type: functional; conditions: read-out: IC50_Mean
[6] = target: T2, DNA repair protein RAD52 homolog (Homo sapiens, UniProt P43351); type: functional, biochemical
T2 sequence (P43351 whole entry): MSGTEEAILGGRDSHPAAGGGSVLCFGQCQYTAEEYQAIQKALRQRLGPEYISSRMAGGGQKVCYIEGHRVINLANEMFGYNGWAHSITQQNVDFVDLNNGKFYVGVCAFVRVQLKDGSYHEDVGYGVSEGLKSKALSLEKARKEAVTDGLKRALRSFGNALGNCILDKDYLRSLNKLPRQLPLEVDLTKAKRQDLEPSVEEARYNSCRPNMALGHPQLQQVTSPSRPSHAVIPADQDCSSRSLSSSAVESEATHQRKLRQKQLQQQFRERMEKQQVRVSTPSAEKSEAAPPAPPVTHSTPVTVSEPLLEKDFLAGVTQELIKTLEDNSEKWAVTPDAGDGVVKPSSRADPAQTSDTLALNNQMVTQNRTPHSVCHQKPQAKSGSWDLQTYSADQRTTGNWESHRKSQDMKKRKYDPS

[7] = tested on: BJ; experiment: cytotoxicity toward BJ-TERT fibroblasts, dose response, cell-based, RAS-independent, luminescence (AID 1933); type: functional; conditions: Homo sapiens
[8] = tested on: BJ; experiment: cells; type: functional, cell-based; conditions: Homo sapiens
[9] = tested on: BJ; experiment: cytotoxicity toward BJ-TERT-LT-ST fibroblasts, dose response, cell-based, RAS-independent, luminescence (AID 1935); type: functional; conditions: Homo sapiens;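 note: BJ fibroblasts immortalized with TERT plus LT and ST oncogenes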
[10] = cytotoxicity toward DRD oncogenic fibroblasts, dose response, cell-based, non-viral oncogenic, luminescence (AID 1934); type: functional; conditions: Homo sapiens
[11] = target: DNA dC->dU-editing enzyme APOBEC-3A (Homo sapiens, UniProt P31941); experiment: Dose Response confirmation of small molecule APOBEC3A DNA Deaminase Inhibitors via a fluorescence-based single-stranded DNA deaminase assay. [Related pubchem assays (depositor defined):AID493011, AID493024]; type: functional
[12] = target: T3, Short transient receptor potential channel 4 (Mus musculus, UniProt Q9QUQ5); experiment: mouse TRPC4 channel inhibitors, dose response, cell-based, HEK293 TRPC4/mu-opioid, Fluo-4 calcium (AID 434942); type: functional;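 note: potency of inhibitors blocking the TRPC4 calcium response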
T3 sequence (Q9QUQ5 whole entry): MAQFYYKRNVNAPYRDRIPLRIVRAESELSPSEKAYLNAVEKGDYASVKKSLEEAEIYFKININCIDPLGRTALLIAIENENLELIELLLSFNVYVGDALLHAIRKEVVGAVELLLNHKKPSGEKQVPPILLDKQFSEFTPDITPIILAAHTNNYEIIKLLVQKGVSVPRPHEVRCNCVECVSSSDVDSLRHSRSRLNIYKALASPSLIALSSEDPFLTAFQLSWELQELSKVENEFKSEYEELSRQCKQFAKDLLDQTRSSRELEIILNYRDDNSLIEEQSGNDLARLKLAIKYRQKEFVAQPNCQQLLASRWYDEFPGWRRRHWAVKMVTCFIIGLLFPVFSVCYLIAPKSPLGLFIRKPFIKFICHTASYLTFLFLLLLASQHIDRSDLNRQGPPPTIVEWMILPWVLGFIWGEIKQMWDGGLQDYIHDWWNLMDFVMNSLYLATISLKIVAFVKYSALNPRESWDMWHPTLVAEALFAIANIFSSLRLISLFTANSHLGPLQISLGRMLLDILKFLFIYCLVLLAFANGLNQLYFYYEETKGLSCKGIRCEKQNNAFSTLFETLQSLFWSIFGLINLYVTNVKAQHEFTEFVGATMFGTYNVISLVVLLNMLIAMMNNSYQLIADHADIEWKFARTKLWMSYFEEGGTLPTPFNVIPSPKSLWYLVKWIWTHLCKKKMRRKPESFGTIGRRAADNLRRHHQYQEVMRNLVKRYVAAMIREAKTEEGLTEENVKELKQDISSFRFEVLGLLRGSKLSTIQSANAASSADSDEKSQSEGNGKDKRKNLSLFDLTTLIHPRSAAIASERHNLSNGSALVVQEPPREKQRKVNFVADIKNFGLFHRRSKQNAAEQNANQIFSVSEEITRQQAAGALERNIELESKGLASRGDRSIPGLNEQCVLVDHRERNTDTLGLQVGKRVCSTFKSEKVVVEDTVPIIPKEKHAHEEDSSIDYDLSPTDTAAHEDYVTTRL

[13] = target: DNA dC->dU-editing enzyme APOBEC-3G (Homo sapiens, UniProt Q9HC16); type: functional;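 note: Dose-response counterscreen measuring inhibition of APOBEC3G DNA deaminase activity, run while confirming APOBEC3A inhibitors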
[14] = tested on: BJ; experiment: cytotoxicity toward Ras-transformed BJeLR fibroblasts, dose response, cell-based, alamar blue fluorescence, cherrypicked samples (AID 2631); type: functional; conditions: Homo sapiens;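 note: confirmatory dose-response assay in RAS-dependent BJ fibroblasts engineered with TERT, LT and ST, with cytotoxicity read by fluorescence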
[15] = tested on: INS1; experiment: beta cell apoptosis inhibitors, cytokine rescue, dose response, luminescence, retest (AID 449756); type: functional, cell-based; conditions: Rattus norvegicus;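 note: cell death triggered by IL-1 beta plus TNF-alpha plus IFN-gamma mixture; protective hits raise ATP signal compared with cytokine alone wells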
[16] = Shn3 3'UTR reporter inhibitors, dose response, cell-based, Clone20 osteoblasts, firefly luciferase, cherry-picked (AID 624132); type: functional;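 note: firefly luciferase luminescence from reporter carrying the Shn3 3'UTR in osteoblasts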
[17] = HepG2 cell cytotoxicity, dose response, cytotoxicity control for Shn3 inhibitor project, CellTiter-Glo, cherry-picked (AID 624134); type: functional, cell-based
[18] = control 3'UTR Renilla luciferase suppression, dose response, counter-screen for Shn3 inhibitor project, cell-based, Clone20-Shn3RL, cherry-picked (AID 624133); type: functional
[19] = target: T4, DNA repair and recombination protein RAD54-like (Homo sapiens, UniProt Q92698); experiment: inhibitors of human RAD54 branch migration, confirmation, biochemical, fluorescence, cherry-picked samples, dose series (AID 651657); type: functional
T4 sequence (Q92698 whole entry): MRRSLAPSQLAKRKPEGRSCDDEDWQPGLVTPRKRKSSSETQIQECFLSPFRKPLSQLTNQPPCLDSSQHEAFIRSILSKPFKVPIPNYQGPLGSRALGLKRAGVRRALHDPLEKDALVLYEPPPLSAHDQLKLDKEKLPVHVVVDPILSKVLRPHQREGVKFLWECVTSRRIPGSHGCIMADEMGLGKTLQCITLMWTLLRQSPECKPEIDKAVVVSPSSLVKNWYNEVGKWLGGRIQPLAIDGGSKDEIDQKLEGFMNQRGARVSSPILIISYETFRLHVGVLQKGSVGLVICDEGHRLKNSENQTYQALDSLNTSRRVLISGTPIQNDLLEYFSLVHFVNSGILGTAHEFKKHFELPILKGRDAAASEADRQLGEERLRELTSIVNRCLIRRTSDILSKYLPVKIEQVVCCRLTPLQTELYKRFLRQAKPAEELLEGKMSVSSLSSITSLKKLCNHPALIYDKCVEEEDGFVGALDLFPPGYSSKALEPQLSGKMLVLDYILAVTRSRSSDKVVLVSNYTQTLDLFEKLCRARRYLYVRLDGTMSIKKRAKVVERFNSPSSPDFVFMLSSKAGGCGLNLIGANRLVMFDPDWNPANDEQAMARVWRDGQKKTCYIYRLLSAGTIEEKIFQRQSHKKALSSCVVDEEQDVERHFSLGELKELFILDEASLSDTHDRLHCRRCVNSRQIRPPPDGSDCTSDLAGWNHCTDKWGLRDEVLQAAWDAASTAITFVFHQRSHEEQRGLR

[20] = target: T5, Endoribonuclease toxin MazF (Escherichia coli K-12, UniProt P0AE70); experiment: MazF toxin RNase activators, dose response, biochemical, fluorescence, single-stranded RNA substrate, uHTS hits (AID 588481); type: functional
T5 sequence (P0AE70 whole entry): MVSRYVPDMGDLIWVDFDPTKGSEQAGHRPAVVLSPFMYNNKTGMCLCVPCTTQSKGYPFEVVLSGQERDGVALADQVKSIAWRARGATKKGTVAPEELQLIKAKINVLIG

[21] = target: T5, Endoribonuclease toxin MazF; experiment: fluorescent RNA oligo signal without MazF, dose response, counter-screen for MazEF activator project, biochemical, fluorescence, single-stranded RNase substrate (AID 588502); type: functional
[22] = tested on: Streptococcus sp. 'group A'; experiment: growth inhibition of control SK(-) GAS strain, dose response, counter-screen for streptokinase expression inhibitor project, luminescence, kanamycin, BacTiterGlo, confirmation (AID 1900); type: functional, organism-based
[23] = target: T6, Streptokinase A (Streptococcus pyogenes serotype M1, UniProt P10520); experiment: S. pyogenes streptokinase expression inhibitors, potency, dose response, plasminogen activation absorbance, OD405 (AID 1914); type: functional, Streptococcus pyogenes M1 GAS;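 note: secreted streptokinase activity via plasminogen activation per viability signal from cell pellet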
T6 sequence (P10520 whole entry): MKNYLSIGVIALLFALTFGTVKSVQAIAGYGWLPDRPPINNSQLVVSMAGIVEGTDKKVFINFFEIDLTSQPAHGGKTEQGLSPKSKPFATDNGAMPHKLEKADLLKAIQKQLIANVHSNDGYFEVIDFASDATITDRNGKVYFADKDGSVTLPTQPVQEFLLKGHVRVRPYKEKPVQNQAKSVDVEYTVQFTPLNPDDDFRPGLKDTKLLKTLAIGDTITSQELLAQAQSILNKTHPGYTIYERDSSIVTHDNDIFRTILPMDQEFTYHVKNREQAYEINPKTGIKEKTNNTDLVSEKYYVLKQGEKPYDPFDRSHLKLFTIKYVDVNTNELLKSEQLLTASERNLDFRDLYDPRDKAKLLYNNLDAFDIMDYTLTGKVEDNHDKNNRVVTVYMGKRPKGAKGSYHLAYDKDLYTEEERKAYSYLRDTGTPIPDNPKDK

[24] = tested on: Streptococcus; experiment: Group A Streptococcus viability loss, dose response, counter-screen for streptokinase expression inhibitor project, luminescence, BacTiterGlo (AID 1915); type: functional, organism-based;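 note: potency for reduction of bacterial viability or growth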
[25] = target: T7, Probable nicotinate-nucleotide adenylyltransferase (Staphylococcus aureus (strain N315), UniProt P65502); type: functional, Staphylococcus aureus subsp. aureus N315;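 for IC50 Mean: confirmatory dose-response retesting of NadD inhibitor hits first found in an ultra-high-throughput screen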
[26] = target: T7, Probable nicotinate-nucleotide adenylyltransferase; type: functional, Staphylococcus aureus subsp. aureus N315; conditions: read-out: IC50_Mean
[27] = tested on: Vero; experiment: Vero cell cytotoxicity, cytotoxicity control for flavivirus capping enzyme inhibitors (AID 588742); type: functional; conditions: Chlorocebus sabaeus

T7 sequence (P65502 whole entry): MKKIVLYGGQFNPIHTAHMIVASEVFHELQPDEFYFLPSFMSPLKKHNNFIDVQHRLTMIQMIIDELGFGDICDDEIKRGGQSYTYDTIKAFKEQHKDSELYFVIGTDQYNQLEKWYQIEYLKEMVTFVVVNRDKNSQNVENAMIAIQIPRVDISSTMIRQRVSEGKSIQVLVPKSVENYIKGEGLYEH
Chain of 26S proteasome non-ATPase regulatory subunit 14 (O00487 whole entry): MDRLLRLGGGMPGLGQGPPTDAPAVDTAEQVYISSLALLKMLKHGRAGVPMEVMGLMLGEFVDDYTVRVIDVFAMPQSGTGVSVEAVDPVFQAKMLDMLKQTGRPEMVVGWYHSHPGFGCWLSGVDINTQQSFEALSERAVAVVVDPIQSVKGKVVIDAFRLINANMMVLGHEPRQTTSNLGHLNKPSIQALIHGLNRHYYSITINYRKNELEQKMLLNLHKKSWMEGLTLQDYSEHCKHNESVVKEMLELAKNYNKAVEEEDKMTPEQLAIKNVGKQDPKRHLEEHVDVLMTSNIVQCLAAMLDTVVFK
T1 sequence (P63165 whole entry): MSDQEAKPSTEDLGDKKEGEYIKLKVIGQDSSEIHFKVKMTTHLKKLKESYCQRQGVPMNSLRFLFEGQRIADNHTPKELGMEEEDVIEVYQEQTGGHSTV
Chain of 72 kDa type IV collagenase (P08253 whole entry): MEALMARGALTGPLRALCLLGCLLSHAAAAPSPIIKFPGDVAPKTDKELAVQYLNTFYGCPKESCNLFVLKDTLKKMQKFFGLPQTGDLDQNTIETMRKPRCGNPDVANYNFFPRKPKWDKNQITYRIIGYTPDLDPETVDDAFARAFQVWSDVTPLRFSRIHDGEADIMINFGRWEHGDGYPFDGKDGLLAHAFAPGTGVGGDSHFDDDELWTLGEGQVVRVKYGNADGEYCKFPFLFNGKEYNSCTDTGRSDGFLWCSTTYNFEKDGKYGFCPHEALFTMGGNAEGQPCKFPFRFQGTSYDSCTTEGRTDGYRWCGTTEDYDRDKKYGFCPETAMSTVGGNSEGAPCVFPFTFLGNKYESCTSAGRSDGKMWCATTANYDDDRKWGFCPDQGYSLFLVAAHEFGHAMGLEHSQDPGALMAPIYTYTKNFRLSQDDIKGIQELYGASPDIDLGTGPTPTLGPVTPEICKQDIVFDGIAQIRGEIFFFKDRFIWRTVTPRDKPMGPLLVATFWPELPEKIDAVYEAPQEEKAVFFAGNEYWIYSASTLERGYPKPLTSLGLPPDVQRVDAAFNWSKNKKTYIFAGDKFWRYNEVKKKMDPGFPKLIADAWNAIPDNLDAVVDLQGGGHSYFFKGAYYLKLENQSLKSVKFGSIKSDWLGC
Chain of DNA dC->dU-editing enzyme APOBEC-3A (P31941 whole entry): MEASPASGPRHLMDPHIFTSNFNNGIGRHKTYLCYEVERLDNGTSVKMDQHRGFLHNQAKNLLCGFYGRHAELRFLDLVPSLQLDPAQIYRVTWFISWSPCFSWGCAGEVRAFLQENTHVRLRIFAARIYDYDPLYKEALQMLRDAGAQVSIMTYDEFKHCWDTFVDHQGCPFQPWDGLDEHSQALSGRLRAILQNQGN
Chain of DNA dC->dU-editing enzyme APOBEC-3G (Q9HC16 whole entry): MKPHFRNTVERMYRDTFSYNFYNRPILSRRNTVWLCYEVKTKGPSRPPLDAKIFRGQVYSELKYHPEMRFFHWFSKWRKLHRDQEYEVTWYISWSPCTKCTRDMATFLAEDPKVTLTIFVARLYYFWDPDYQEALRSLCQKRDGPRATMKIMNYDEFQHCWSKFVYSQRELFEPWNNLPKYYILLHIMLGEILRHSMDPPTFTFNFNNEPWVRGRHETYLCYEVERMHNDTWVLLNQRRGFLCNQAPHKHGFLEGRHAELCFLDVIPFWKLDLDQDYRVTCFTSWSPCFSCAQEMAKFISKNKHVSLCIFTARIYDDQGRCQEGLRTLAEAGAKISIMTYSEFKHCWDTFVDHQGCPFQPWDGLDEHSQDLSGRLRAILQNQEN

With `CCCCCCCCCCCC1NC(N)=NC(CCCO)=C1C(=O)OC` (stereo not given) the IC50 [1] was 19.9 µM (active), the IC50 [2] was 85.8 µM (active) and the IC50 [3] was 42.3 µM (active). For the same compound, the IC50 [4] was > 66.6 µM (inactive), the IC50 [5] was 10.1 µM (active) and the AC50 [6] was 7.72 µM (active).
For `CN(C)CCCNc1c2ccccc2nc2ccccc12`, the EC50 [7] was 1.92 µM (active), the EC50 [8] was 3.21 µM (active) and the EC50 [9] was 5.56 µM (active). The EC50 [10] was 4.72 µM (active), the IC50 [11] was 18 µM (active) and the EC50 [12] was 1.33 µM (active). For the same compound, the IC50 [13] was 58 µM (active), the EC50 [14] was 0.454 µM (inconclusive) and the AC50 [15] was 0.533 µM (active). The AC50 [16] was 3.22 µM (active), the AC50 [17] was 7.82 µM (active) and the AC50 [18] was > 70 µM (inactive). For the same compound, the AC50 [19] was 0.814 µM (active) and the AC50 [6] was 0.271 µM (active).
For `CCCN1C(=O)/C(=C/c2c(NCCCOC(C)C)nc3c(C)cccn3c2=O)SC1=S`, the EC50 [20] was 16 µM (active), the EC50 [21] was 34.2 µM (inactive) and the IC50 [1] was 0.09 µM (active). For the same compound, the IC50 [2] was > 100 µM (inactive) and the IC50 [3] was 0.148 µM (active).
In the case of `Cc1cc(C)c2nc(NNC(=O)c3cc(=O)c4ccccc4o3)sc2c1`, the EC50 [22] was 0.296 µM (active), the EC50 [23] was > 150 µM (not active) and the EC50 [24] was 7.16 µM (active). For the same compound, the IC50 [25] was 4.41 µM (active) and the IC50 [26] was 28.2 µM (active).
For `O=C(NCc1ccco1)c1cccc2c1C(=O)c1ccc(/C=C/c3ccccc3)cc1S2(=O)=O`, the IC50 [25] was 11.5 µM (active) and the IC50 [26] was 29.3 µM (active).
With `CN1CCC[C@H]1CCNc1ccc2c(=O)c3ccccc3n(C)c2c1` the CC50 [27] was 30.7 µM (active), the AC50 [19] was 5.81 µM (active) and the AC50 [6] was 2.17 µM (active).
